Test [1] relates to o-phenyl-p-benzoquinone induced stretch symptoms. Briefly: Analgesic Action (Phenylquinone Method). Type of test: in vivo, dd-strain male mice. The settings on record: Mus musculus, po, mice, 1 hour before 0.02% o-phenyl-p-benzoquinone i.p., dose required for 50% inhibition of stretch symptoms (30 minutes). The protocol: According to the method of Hendershot et al. (J. Pharmacol. Exptl. Therap., 125, 237 (1959)), to one group of 6 dd-strain male mice each weighing about 20 g a test solution containing a test compound was orally administered and 1 hour later 0.2 ml/20 g of body weight of 0.02% o-phenyl-p-benzoquinone solution was intraperitoneally injected. The frequency of stretch symptoms thus induced was measured for 30 minutes, and compared with that of a control group, and the inhibition percentage (effect) was calculated. The ED50 the dose required for 50% inhibition, was calculated from the dose-response curve.

Test [2] concerns carrageenin edema of the hind paw. Briefly: Anti-inflammatory Action, Carrageenin Edema Method. The test is classed as in vivo, Donryu-strain male rats. The settings on record: Rattus norvegicus, po, rats, 1 hour before 1% carrageenin s.c.; paw bulk 2 hours after phlogogen; dose required for 50% inhibition. The protocol:
i. Carrageenin Edema Method
According to the method of Winter et al. (Proc. Soc. Exptl. Biol. Med., 111, 544 (1962)), to one group of 5 Donryu-strain male rats each weighing about 130 g a test solution containing a test compound was administered orally. One hour later 0.05 ml of 1% carrageenin solution as phlogogenic substance was subcutaneously injected to the paw of the hind leg. And 2 hours after the administration of phlogogen the bulk of the paw was measured in order to obtain the increment percentage over that before administration. The ratio of bulk increment between a control group and a test group was calculated as inhibition percentage. The ED50, the dose required for 50% inhibition, was calculated from the dose-response curve.
In general terms: The carrageenan paw model is a standard test of acute inflammation.

Test [3] deals with ultraviolet erythema. Briefly: Anti-inflammatory Action, Ultraviolet Erythema Method. The test is classed as in vivo. To be noted: Cavia porcellus, light or radiation study, po, guinea pigs, equal amounts 1 hour before and after irradiation; total dose required for 50% efficacy rate. From the text:
ii. Ultraviolet Erythema Method:
Using guinea pigs weighing 250-450 g, a rubber plate with 3 holes of 7 mm in diameter was fitted to the abdomen, hair of which had been removed in advance, and light was given by a mercury lamp (300 W) at the distance of 15 cm for 150 seconds. Two hours later the degree of erythema formation was marked according to the method of Winder et al. (Arch. Intern. Pharmacodyn., 116, 261 (1958); 1 for distinct erythema, 0.5 for indistinct erythema and 0 for no erythema) and the efficacy rate was calculated, based on the criterion that 1.5 or less of total marks be effective. Equal amounts of the test solution were orally given 1 hour before and after the irradiation, respectively. The ED50, the total dose required for 50% efficacy rate, was calculated from the dose-response curve.

SMILES strings stand for the structures.

As usually defined, the ED50 is the midpoint of the dose-response relation. The low end stands for greater potency, the high end for weaker potency. Take `CC(C(=O)O)c1ccc(-c2cn3ccccc3n2)c(Cl)c1` (stereo not drawn) [B, 2-[3-chloro-4-(imidazo[1,2-a]pyridin-2-yl)phenyl]propionic acid]: the figures for the ED50 in test [1], in test [2] and in test [3] were 0.2 mg/kg, 25 mg/kg and 1 mg/kg, respectively.
For `CC(C(=O)O)c1ccc(-c2cn3ccsc3n2)cc1` (stereo not drawn) [D, 2-[4-(imidazo[2,1-b]thiazol-6-yl)phenyl]propionic acid], in that order: 13 mg/kg, 50 mg/kg and 2.5 mg/kg.
For `CC(C(=O)O)c1ccc(-c2cn3ccccc3n2)c(F)c1` (stereo not drawn) [C, 2-[3-fluoro-4-(imidazo[1,2-a]pyridin-2-yl)phenyl]propionic acid], in that order: 0.1 mg/kg, 25 mg/kg and 2.5 mg/kg.
For `CC(C(=O)O)c1ccc(-c2cn3ccccc3n2)cc1` (stereo not drawn) [A, 2-[4-(imidazo[1,2-a]pyridin-2-yl)phenyl]propionic acid], in that order: 0.1 mg/kg, 8 mg/kg and 6 mg/kg.
As to `CC(C(=O)O)c1ccc(-c2cn3ccsc3n2)c(Cl)c1` (stereo not drawn) [E, 2-[3-chloro-4-(imidazo[2,1-b]thiazol-6-yl)phenyl]propionic acid], the 50% effective dose (ED50) in test [1] was 0.5 to 1 mg/kg; in test [2], 100 mg/kg; in test [3], 5 mg/kg.

Source of the values: US3978071A, “Substituted phenylalkanoic acids and derivatives” (Yoshitomi Pharmaceutical Industries, Ltd., priority 1973, dated 1976).
